Test results reported in patent US7767455B2, “Nucleus export reporter system” (priority 2000, dated 2010).

Experiments:
huGFP reporter = test: Expression of the Rev-independent huGFP reporter in transfected H1299 cells (Western blot); format: cell-based, human; settings: 5 nM LMB in the medium 24 h before harvesting, FIG. 5B
[1] = tested on: Rev-mediated nuclear export; test: Inhibition of Rev-dependent GFP expression of the UTR-hivGFP-RRE reporter in transfected H1299 cells (Western blot); format: cell-based, human; settings: 5 nM LMB in the medium 24 h before harvesting, Rev cotransfected, FIG. 5B

## CCC(=C/[C@H](C)C/C=C/C(C)=C/[C@@H](C)C(=O)[C@@H](C)[C@H](O)[C@@H](C)C/C(C)=C/C(=O)O)/C=C/[C@@H]1OC(=O)C=C[C@@H]1C [LMB, Leptomycin B]
huGFP reporter
  expression of the huGFP reporter: not the expression of the huGFP reporter
[1]
  expression of the Rev-dependent GFP reporter: inhibit
